Experimental data as given in patent US20220324835A1 (Nurix Therapeutics, Inc., priority 2018, published 2022).

What was measured:
Cbl-b [1] = target: T1, Cbl-b (Homo sapiens, UniProt Q13191); assay: Cbl-b inhibition assay (Cbl-b activity assay, FRET, Biological Example 1; 100 mM NaCl, 60 nM Src kinase); format: biochemical; conditions: upper bound stated in text lists; read-out: IC50 values in the Cbl-b inhibition assay of Biological Example 1
Outline: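 Steps: Src kinase phosphorylates N-terminal biotinylated Avi-tagged Cbl-b; phosphorylated Cbl-b binds Bodipy-fluorescein ubiquitin-loaded UbcH5B; streptavidin-terbium on Cbl-b sits close to the fluorescein label, producing FRET. Inhibitors block UbcH5B-Ub binding.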

T-cell [2] = assay: IL-2 secretion from T-cells co-stimulated with anti-CD3 and anti-CD28 antibody (Biological Example 2); format: cell-based, human; conditions: Homo sapiens, T-cell; for fold induction at 4 µM: 4 μM Cbl-b inhibitor
Outline: (§1)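 Values are fold-change over baseline: readings (IL-2 release, CD25 staining) from inhibitor-treated T-cells divided against untreated cells […]. No detailed procedure stated.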

T-cell [3] = assay: IL-2 secretion from T-cells stimulated with anti-CD3 antibody alone (Biological Example 2); format: cell-based, human; conditions: T-cell, read-out: IL-2 secretion Anti-CD3 stimulation; for fold induction at 1 µM: 1 μM Cbl-b inhibitor; for fold induction at 8 µM: 8 μM Cbl-b inhibitor
T-cell [4] = assay: CD25 cell surface staining on T-cells co-stimulated with anti-CD3 and anti-CD28 antibody (Biological Example 2); format: cell-based, human; conditions: Homo sapiens, T-cell; for fold induction at 4 µM: 4 μM Cbl-b inhibitor
Outline: as §1

Cbl-b [5] = target: T1, Cbl-b; assay: Cbl-b activity assay (Cbl-b inhibition assay), TR-FRET of Cbl-b interaction with UbcH5B-Ub; format: biochemical; conditions: assay buffer with 100 mM NaCl, 60 nM Src kinase; read-out: Cbl-b activity IC50
Outline: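 Compound-treated Cbl-b was incubated 1.5 h with Src kinase (60 nM final; 30 nM for asterisked values, which also used 50 mM instead of 100 mM NaCl), 1 mM ATP and 5 mM MgCl2. Binding to fluorescent Ub-loaded UbcH5B (C85K mutant) was then read by TR-FRET after 1 h more.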

[6] = fold change over baseline, 0.3 μM Cbl-b inhibitor, primary human total T-cells, read-out: IL-2 secretion Anti-CD3/Anti-CD28 stimulation
[7] = fold change over baseline, 1 μM Cbl-b inhibitor, primary human total T-cells, read-out: IL-2 secretion Anti-CD3/Anti-CD28 stimulation
[8] = fold change over baseline, primary human total T-cells, read-out: IL-2 secretion Anti-CD3/Anti-CD28 stimulation
[9] = fold change over baseline, primary human total T-cells
[10] = fold change over baseline, 0.3 μM Cbl-b inhibitor, primary human total T-cells, read-out: CD25 staining Anti-CD3/Anti-CD28 stimulation
[11] = fold change over baseline, 1 μM Cbl-b inhibitor, primary human total T-cells, read-out: CD25 staining Anti-CD3/Anti-CD28 stimulation
[12] = fold change over baseline, primary human total T-cells, read-out: CD25 staining Anti-CD3/Anti-CD28 stimulation

T1 sequence (Q13191 36-427): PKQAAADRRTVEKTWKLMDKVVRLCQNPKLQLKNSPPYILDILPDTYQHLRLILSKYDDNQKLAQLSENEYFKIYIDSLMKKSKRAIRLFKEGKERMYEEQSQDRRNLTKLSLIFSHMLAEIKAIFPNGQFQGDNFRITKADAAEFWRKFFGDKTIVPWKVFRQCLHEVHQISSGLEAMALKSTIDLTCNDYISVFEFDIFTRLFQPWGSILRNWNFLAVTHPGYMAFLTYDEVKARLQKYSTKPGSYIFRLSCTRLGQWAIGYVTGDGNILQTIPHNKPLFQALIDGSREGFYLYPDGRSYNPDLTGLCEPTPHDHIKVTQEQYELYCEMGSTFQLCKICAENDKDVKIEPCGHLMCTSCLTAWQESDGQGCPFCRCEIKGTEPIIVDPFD

Structure (SMILES) | IC50 (Cbl-b [1]) | fold induction at 0.3 µM (T-cell [2]; [6]) | fold induction at 1 µM (T-cell [2]; [7]) | fold induction at 4 µM (T-cell [2]; [8]) | fold induction at 1 µM (T-cell [3]; [9]) | fold induction at 8 µM (T-cell [3]; [9]) | fold induction at 0.3 µM (T-cell [4]; [10]) | fold induction at 1 µM (T-cell [4]; [11]) | fold induction at 4 µM (T-cell [4]; [12]) | IC50 (Cbl-b [5]) | fold induction at 0.3 µM (T-cell [2]; 0.3 μM Cbl-b inhibitor, fold change over baseline (anti-CD3/anti-CD28 stimulated T-cells without inhibitor), read-out: IL-2 secretion Anti-CD3/Anti-CD28 stimulation) | fold induction at 1 µM (T-cell [2]; 1 μM Cbl-b inhibitor, fold change over baseline (anti-CD3/anti-CD28 stimulated T-cells without inhibitor), read-out: IL-2 secretion Anti-CD3/Anti-CD28 stimulation) | fold induction at 1 µM (T-cell [3]; Homo sapiens, fold change over baseline (anti-CD3/anti-CD28 stimulated T-cells without inhibitor)) | fold induction at 0.3 µM (T-cell [4]; 0.3 μM Cbl-b inhibitor, fold change over baseline (anti-CD3/anti-CD28 stimulated T-cells without inhibitor), read-out: CD25 staining Anti-CD3/Anti-CD28 stimulation) | fold induction at 1 µM (T-cell [4]; 1 μM Cbl-b inhibitor, fold change over baseline (anti-CD3/anti-CD28 stimulated T-cells without inhibitor), read-out: CD25 staining Anti-CD3/Anti-CD28 stimulation) | fold induction at 0.3 µM (T-cell [2]; 0.3 μM compound, primary human total T-cells, baseline = anti-CD3/anti-CD28 stimulated cells without inhibitor, read-out: IL-2 secretion, Anti-CD3/Anti-CD28 stimulation, fold change over baseline) | fold induction at 1 µM (T-cell [2]; 1 μM compound, primary human total T-cells, baseline = anti-CD3/anti-CD28 stimulated cells without inhibitor, read-out: IL-2 secretion, Anti-CD3/Anti-CD28 stimulation, fold change over baseline) | fold induction at 0.3 µM (T-cell [4]; 0.3 μM compound, primary human total T-cells, baseline = anti-CD3/anti-CD28 stimulated cells without inhibitor, read-out: CD25 staining, Anti-CD3/Anti-CD28 stimulation, fold change over baseline) | fold induction at 1 µM (T-cell [4]; 1 μM compound, primary human total T-cells, baseline = anti-CD3/anti-CD28 stimulated cells without inhibitor, read-out: CD25 staining, Anti-CD3/Anti-CD28 stimulation, fold change over baseline)
C[C@H](Cc1nncn1C)c1cccc(NC(=O)c2cc(O[C@@H]3CC[C@@H](O)C3)ccn2)c1 (relative stereo) [Compound 205, trans-4-(3-hydroxycyclopentyloxy)-N-(3-((R)-1-(4-methyl-4H-1,2,4-triazol-3-yl)propan-2-yl)phenyl)picolinamide] | ≤ 100 nM | 2.51 to 5 | 2.51 to 5 | 5 to 7.5 | 0.051 to 0.1 | 0.101 to 0.15 | 1.01 to 1.3 | 1.01 to 1.3 | 1.31 to 1.5 | < 100 nM |  |  |  |  |  |  |  |  | 
C[C@H](c1cc2c(c(C(F)(F)F)c1)CN(c1cccc(C3([C@H](F)c4nncn4C)COC3)c1)C2=O)N1CCC2(CC2)C1 (stereo in doubt) [Example 575, 6-((R)-1-(5-Azaspiro[2.4]heptan-5-yl)ethyl)-2-(3-(3-((S)-fluoro(4-methyl-4H-1,2,4-triazol-3-yl)methyl)oxetan-3-yl)phenyl)-4-(trifluoromethyl)isoindolin-1-one] | ≤ 100 nM |  |  |  |  |  |  |  |  | < 100 nM | > 7.5 | > 7.5 | > 0.201 | 1.31 to 1.5 | 1.31 to 1.5 |  |  |  | 
Cc1ccc(C(=O)Nc2cccc([C@H](C)Sc3nncn3C)c2)nc1C1CC1 [Compound 54, (S)-6-cyclopropyl-5-methyl-N-(3-(1-((4-methyl-4H-1,2,4-triazol-3-yl)thio)ethyl)phenyl)picolinamide] | ≤ 100 nM | 1.01 to 2.5 | 2.51 to 5 | > 7.5 | < 0.05 | 0.151 to 0.2 | 1.01 to 1.3 | 1.01 to 1.3 | 1.01 to 1.3 | < 100 nM |  |  |  |  |  |  |  |  | 
Cc1cc(C(=O)Nc2cccc([C@H](C)Sc3nncn3C)c2)nc(C(F)(F)F)c1 [Compound 65, (S)-4-methyl-N-(3-(1-((4-methyl-4H-1,2,4-triazol-3-yl)thio)ethyl)phenyl)-6-(trifluoromethyl)picolinamide] | ≤ 100 nM | 1.01 to 2.5 | 1.01 to 2.5 | 2.51 to 5 | < 0.05 | 0.101 to 0.15 | 1.01 to 1.3 | 1.01 to 1.3 | 1.01 to 1.3 | < 100 nM |  |  |  |  |  |  |  |  | 
C[C@H](Sc1nncn1C)c1cccc(NC(=O)c2cc(C3CC3)cc(C(F)(F)F)n2)c1 [Compound 67, (S)-4-cyclopropyl-N-(3-(1-((4-methyl-4H-1,2,4-triazol-3-yl)thio)ethyl)phenyl)-6-(trifluoromethyl)picolinamide] | ≤ 100 nM | 1.01 to 2.5 | 1.01 to 2.5 | 2.51 to 5 | < 0.05 | 0.101 to 0.15 | 1.01 to 1.3 | 1.01 to 1.3 | 1.01 to 1.3 | < 100 nM |  |  |  |  |  |  |  |  | 
C[C@H](Sc1nncn1C)c1cccc(NC(=O)c2cccc(C3CC3)n2)c1 [Compound 72, (S)-6-cyclopropyl-N-(3-(1-((4-methyl-4H-1,2,4-triazol-3-yl)thio)ethyl)phenyl)picolinamide] | ≤ 100 nM | 1.01 to 2.5 | 2.51 to 5 | 2.51 to 5 | 0.051 to 0.1 | 0.151 to 0.2 | 1.31 to 1.5 | 1.51 to 1.75 | 1.51 to 1.75 | < 100 nM |  |  |  |  |  |  |  |  | 
C[C@H](Sc1nncn1C)c1cccc(NC(=O)c2ccnc(C3CC3)n2)c1 [Compound 76, 2-cyclopropyl-A-[3-[(1S)-1-[(4-methyl-1,2,4-triazol-3-yl)sulfanyl]ethyl]phenyl]pyrimidine-4-carboxamide] | ≤ 100 nM | < 1 | 2.51 to 5 | 5 to 7.5 | < 0.05 | 0.051 to 0.1 | 1.01 to 1.3 | 1.01 to 1.3 | 1.31 to 1.5 | < 100 nM |  |  |  |  |  |  |  |  | 
C[C@H](Sc1nncn1C)c1cccc(NC(=O)c2ccc(CO)c(C3CC3)n2)c1 [Compound 89, 6-cyclopropyl-5-(hydroxymethyl)-N-[3-[(1S)-1-[(4-methyl-1,2,4-triazol-3-yl)sulfanyl]ethyl]phenyl]pyridine-2-carboxamide] | ≤ 100 nM | 1.01 to 2.5 | 2.51 to 5 | 5 to 7.5 | < 0.05 | 0.101 to 0.15 | 1.01 to 1.3 | 1.01 to 1.3 | 1.31 to 1.5 | < 100 nM |  |  |  |  |  |  |  |  | 
C[C@H](Sc1nncn1C)c1cccc(NC(=O)c2ccc(F)c(C3CC3)n2)c1 [Compound 91, 6-Cyclopropyl-5-fluoro-N-[3-[(1S)-1-[(4-methyl-1,2,4-triazol-3-yl)sulfanyl]ethyl]phenyl]pyridine-2-carboxamide] | ≤ 100 nM | 1.01 to 2.5 | 2.51 to 5 | > 7.5 | < 0.05 | 0.101 to 0.15 | < 1 | < 1 | 1.01 to 1.3 | < 100 nM |  |  |  |  |  |  |  |  | 
C[C@H](Sc1nncn1C)c1cccc(NC(=O)c2ccc(C#N)c(C3CC3)n2)c1 [Compound 92, 5-cyano-6-cyclopropyl-N-[3-[(1S)-1-[(4-methyl-1,2,4-triazol-3-yl)sulfanyl]ethyl]phenyl]pyridine-2-carboxamide] | ≤ 100 nM | 1.01 to 2.5 | 2.51 to 5 | 5 to 7.5 | < 0.05 | 0.101 to 0.15 | 1.01 to 1.3 | 1.31 to 1.5 | 1.31 to 1.5 | < 100 nM |  |  |  |  |  |  |  |  | 
COc1ccc(C(=O)Nc2cccc([C@H](C)Sc3nncn3C)c2)nc1C1CC1 [Compound 93, 6-cyclopropyl-5-methoxy-N-[3-[(1S)-1-[(4-methyl-1,2,4-triazol-3-yl)sulfanyl]ethyl]phenyl]pyridine-2-carboxamide] | ≤ 100 nM | 1.01 to 2.5 | 1.01 to 2.5 | 2.51 to 5 | < 0.05 | 0.101 to 0.15 | 1.01 to 1.3 | 1.01 to 1.3 | 1.01 to 1.3 | < 100 nM |  |  |  |  |  |  |  |  | 
C[C@H](c1cc2c(c(C(F)(F)F)c1)CN(c1cccc(C3(Cc4nncn4C)COC3)c1)C2=O)N1CCC(C)(F)CC1 [Example 553b, (R)-6-(1-(4-fluoro-4-methylpiperidin-1-yl)ethyl)-2-(3-(3-((4-methyl-4H-1,2,4-triazol-3-yl)methyl)oxetan-3-yl)phenyl)-4-(trifluoromethyl)isoindolin-1-one] | ≤ 100 nM |  |  |  |  |  |  |  |  | < 100 nM |  |  |  |  |  | > 7.5 | > 7.5 | > 1.76 | > 1.76
